Among the data in ChEMBL document CHEMBL5053551, “Structure-Based Design of Dual Partial Peroxisome Proliferator-Activated Receptor γ Agonists/Soluble Epoxide Hydrolase Inhibitors” (J Med Chem, 2021) are Activity, IC50 and Drug metabolism values, retold here.

Data set [1] has as its system HepG2. Kind of data set: Cytotoxicity agianst human HepG2 cells assessed as reduction in cell viability at 10 to 30 uM after 48 hrs by WST-1 assay. In kind it is cell-based. As to conditions: hepg2, 48 h, dose 10-30 µM. For orientation: Tetrazolium dyes change colour on reduction, which living cells bring about.
Data set [2] addresses T1, Vitamin D3 receptor (Homo sapiens) (UniProt P11473).
T1 sequence (whole entry): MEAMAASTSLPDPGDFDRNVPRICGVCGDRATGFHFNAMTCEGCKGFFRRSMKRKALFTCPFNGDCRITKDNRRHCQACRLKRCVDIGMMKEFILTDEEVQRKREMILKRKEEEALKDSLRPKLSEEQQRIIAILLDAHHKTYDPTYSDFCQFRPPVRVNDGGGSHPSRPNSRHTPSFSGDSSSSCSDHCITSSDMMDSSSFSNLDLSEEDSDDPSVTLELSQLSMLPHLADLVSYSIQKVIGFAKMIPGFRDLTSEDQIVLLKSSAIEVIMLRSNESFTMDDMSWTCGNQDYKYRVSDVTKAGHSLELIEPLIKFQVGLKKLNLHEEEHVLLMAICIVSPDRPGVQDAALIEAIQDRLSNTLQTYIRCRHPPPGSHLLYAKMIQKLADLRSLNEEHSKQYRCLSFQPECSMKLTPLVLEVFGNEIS
Put plainly: Partial agonist activity at GAL4-tagged human VDR LBD expressed in HEK293T cells at 3 uM incubated for 12 to 14 hrs by dual-Glo luciferase assay. It counts as cell-based. As to conditions: filed as partial agonist, time 12-14 hrs.

The subject of data set [3] is HepG2. Kind of data set: Cytotoxicity against human HepG2 cells assessed as reduction in ATP level upto 10 uM after 72 hrs by CellTiter-glo luminescence assay. In kind it is cell-based. As to conditions: hepg2, 72 h. In general terms: Cellular ATP, detected with luciferase, serves as a proxy for viable cell number.
In data set [4] the target is T2, Bifunctional epoxide hydrolase 2 (Homo sapiens, UniProt P34913).
T2 sequence (P34913 whole entry): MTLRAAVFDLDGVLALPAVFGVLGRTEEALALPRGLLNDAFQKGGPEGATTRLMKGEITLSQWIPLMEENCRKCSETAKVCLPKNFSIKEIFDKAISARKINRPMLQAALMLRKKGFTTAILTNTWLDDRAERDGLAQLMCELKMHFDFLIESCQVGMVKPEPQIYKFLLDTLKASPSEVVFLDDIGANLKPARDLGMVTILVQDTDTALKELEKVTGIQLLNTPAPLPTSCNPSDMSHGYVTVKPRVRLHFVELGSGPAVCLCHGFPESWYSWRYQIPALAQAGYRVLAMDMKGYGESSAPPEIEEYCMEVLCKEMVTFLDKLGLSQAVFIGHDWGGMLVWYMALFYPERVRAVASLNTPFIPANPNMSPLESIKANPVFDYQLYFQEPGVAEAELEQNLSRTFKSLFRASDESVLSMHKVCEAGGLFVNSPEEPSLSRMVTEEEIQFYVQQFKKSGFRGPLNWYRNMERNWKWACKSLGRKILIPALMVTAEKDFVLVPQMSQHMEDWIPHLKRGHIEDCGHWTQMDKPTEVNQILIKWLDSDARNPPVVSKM
Kind of data set: Inhibition of recombinant human full length sEH assessed as reduction in 6-methoxy-2-naphthaldehyde formation using PHOME as substrate preincubated for 30 to 45 mins followed by substrate addition and measured after 30 to 45 mins by fluorescence assay.

A short description of data set [5]: Drug metabolism in rat liver microsomes assessed as metabolite formation after 60 mins by UPLC-MS analysis. It counts as ADME, Microsome. The settings on record: 1 h. (Liver microsomes are vesicles of endoplasmic reticulum, rich in cytochrome P450 enzymes.)
The subject of another data set is 3T3-L1. Put plainly: Induction of cell differentiation in mouse 3T3-L1 cells assessed as increase in differentiation cocktail-induced lipid accumulation at 0.3 to 3 uM incubated for 2 days by Oil-Red O staining based assay. It counts as functional. As to conditions: dose 0.3-3 µM, time 2.0 day.
For data set [6], the target named is T3, Peroxisome proliferator-activated receptor gamma (Homo sapiens, UniProt P37231).
T3 sequence (P37231 whole entry): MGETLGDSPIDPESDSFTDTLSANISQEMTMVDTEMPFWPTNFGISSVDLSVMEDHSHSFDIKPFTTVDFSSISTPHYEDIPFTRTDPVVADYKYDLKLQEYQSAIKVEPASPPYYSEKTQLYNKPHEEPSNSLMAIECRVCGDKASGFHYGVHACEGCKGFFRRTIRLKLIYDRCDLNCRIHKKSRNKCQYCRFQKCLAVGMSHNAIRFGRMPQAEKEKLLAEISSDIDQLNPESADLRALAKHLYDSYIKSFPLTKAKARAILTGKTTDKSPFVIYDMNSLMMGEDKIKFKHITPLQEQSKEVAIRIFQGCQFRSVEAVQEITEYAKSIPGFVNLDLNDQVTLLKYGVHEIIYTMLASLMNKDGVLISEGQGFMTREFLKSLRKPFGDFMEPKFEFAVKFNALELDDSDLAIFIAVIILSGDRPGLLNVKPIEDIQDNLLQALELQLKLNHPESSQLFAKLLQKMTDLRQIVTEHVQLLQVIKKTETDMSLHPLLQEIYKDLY
Put plainly: Partial agonist activity at recombinant sGSF-PPARgamma (unknown origin) assessed as reduction in rosiglitazone induced CBP-1 recruitment incubated for 1 hr by HTRF competitive assay.

The target of data set [7] is T4, Peroxisome proliferator-activated receptor alpha (Homo sapiens) (UniProt Q07869).
T4 sequence (whole entry): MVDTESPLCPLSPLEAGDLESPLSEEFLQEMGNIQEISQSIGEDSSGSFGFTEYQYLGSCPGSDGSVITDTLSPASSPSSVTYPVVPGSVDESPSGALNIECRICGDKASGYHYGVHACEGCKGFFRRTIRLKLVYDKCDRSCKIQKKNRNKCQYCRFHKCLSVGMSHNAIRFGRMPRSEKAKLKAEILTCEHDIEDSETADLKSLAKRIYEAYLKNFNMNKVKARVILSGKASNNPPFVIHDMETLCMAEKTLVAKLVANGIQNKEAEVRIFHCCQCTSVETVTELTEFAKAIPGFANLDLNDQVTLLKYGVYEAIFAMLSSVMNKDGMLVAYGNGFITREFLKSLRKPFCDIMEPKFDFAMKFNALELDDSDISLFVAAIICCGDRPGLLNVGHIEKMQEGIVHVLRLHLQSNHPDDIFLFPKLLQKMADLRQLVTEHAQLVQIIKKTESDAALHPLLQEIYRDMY
Put plainly: Partial agonist activity at GAL4-tagged human PPARalpha LBD expressed in HEK293T cells at 3 uM incubated for 12 to 14 hrs by dual-Glo luciferase assay. In kind it is cell-based. The settings on record: time 12-14 hrs.

For data set [8], the system named is HepG2. Kind of data set: Induction of cell proliferation in human HepG2 cells. In kind it is functional, cell-based. As to conditions: dose 2.5-100 µM.
The test system of data set [9] is HepG2. Kind of data set: Cytotoxicity agianst human HepG2 cells assessed as reduction in cell viability at 30 uM after 48 hrs by WST-1 assay. In kind it is cell-based. The settings on record: hepg2, 48 h.

The source made the active and inactive calls. The calls are words filed in the database; no cut-off is given here.

The term IC50 denotes the concentration needed to halve the response being measured. In the case of `CS(=O)(=O)Nc1ccc(CNC(=O)c2ccc3c(ccn3Cc3cccc(F)c3)c2)c(C(F)(F)F)c1`, the Activity result is on record as “Toxic” with HepG2 [1] and “Non-Toxic” with HepG2 [3]. In addition, the outcome (in [2]; with 3T3-L1) was Active. The IC50 worked out at 5 nM in data set [4] and 1620 nM in data set [6]. In data set [5], the Drug metabolism entry is on record as “Metabolite_Detected”. In [7], the result was inactive.

On to `O=C(NCc1ccc(NS(=O)(=O)C2CC2)cc1C(F)(F)F)c1ccc2c(ccn2Cc2cccc(F)c2)c1`, for which the figures for the Activity result in the data set with HepG2 [8], in the data set on HepG2 [3] and in the data set on HepG2 [9] were “Dose-dependent effect”, “Non-Toxic” and “Non-Toxic”, respectively. The result (in [2]; in the data set with 3T3-L1) was Active. For the same compound, in [7], the result was inactive.
